Common to all, as to assay type: cell-based
The target of assay [1] is T1, human NHE3 (Homo sapiens, UniProt P48764).
T1 construct: expressed in transfected cells; host or cells: OK26 cells (opossum kidney OK cells); OK26 ND sublines with opNHE1 reduced by 90% for A3
T1 sequence (P48764 26-834): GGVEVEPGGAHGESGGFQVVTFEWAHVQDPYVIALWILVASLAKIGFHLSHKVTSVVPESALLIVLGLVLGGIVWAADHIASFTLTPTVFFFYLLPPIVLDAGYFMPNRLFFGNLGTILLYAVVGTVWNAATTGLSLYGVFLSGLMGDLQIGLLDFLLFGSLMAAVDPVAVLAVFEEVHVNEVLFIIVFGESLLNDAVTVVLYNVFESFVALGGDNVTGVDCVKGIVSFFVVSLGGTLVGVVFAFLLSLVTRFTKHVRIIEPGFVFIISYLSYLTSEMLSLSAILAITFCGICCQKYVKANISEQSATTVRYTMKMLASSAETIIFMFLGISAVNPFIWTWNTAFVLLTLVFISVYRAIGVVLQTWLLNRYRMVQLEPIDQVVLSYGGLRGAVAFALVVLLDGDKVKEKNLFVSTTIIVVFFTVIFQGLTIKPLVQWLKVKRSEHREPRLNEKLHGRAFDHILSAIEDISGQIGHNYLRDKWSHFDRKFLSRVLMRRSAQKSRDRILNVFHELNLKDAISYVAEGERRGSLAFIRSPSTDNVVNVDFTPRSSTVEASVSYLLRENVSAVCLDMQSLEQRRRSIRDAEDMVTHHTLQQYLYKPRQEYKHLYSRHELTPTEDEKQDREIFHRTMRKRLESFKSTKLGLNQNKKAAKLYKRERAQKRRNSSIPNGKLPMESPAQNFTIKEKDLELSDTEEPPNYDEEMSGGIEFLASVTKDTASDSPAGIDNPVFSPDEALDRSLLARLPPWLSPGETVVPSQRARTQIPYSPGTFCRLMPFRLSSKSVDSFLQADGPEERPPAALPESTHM
The experiment in a line: Measurements of NHE3 inhibitory activities (OK26 cells). Particulars: OK26 cells (opossum kidney cells overexpressing human NHE3), measurement time 5 minutes at 37° C.; read-out: hNHE3 IC50. How it is done:
(§1) HLF cells (Human hepatoma cell line) were used as cells for the test. After 1×10^4 cells/well were seeded to a 96-well plate and cultured for 3 days, they were cultured overnight under a serum-free medium. Then, the cells were incubated in a stain solution of Tetramethylammonium (TMA) Buffer (130 mM TMA-C1, 5 mM KCl, 2 mM CaCl2, 1 mM MgSO2, 25 mM glucose, 20 mM HEPES; pH 7.4) containing 40 mM NH4Cl and 1 μg/mL pH-sensitive fluorescent indicator BCECF-AM at 37° C. for 40 minutes and then BCECF was introduced into the cells. After the cells were washed once with TMA Buffer and incubated in TMA+40 mM NH4Cl solution at 37° C. for 15 minutes, the solution was removed and 20 μL/well of TMA Buffer and 10 μL/well of each test compound solution prepared with TMA Buffer were added to each well. The measurements were carried out by adding 200 μL/well of Na Buffer (130 mM, NaCl, 5 mM KCl, 2 mM CaCl2, 1 mM MgSO2, 1 mM NaH2PO4, 25 mM glucose, 20 mM HEPES; pH 7.4) or TMA Buffer (for base measurement), immediately placing it on FlexStation (Molecular Device) and then, after 10 minutes, measuring, it the two wavelengths of 505 nm (excitation wavelength)/530 nm (emission wavelength) (measurement value) and 440 nm (excitation wavelength)/530 nm (emission wavelength) (isosbestic point value). A NHE activity was calculated by dividing a measurement value by an isosbestic point value and a NHE1 inhibitory activity was calculated by the following equation. NHE1 inhibitory activity (%)=100×(1−(Measurement value [addition of each compound]−Base [addition of TMA Buffer])/(Control [addition of Na Buffer]−Base [addition of TMA Buffer]))
Pharmacological Test Example 2: Measurements of NHE3 Inhibitory Activities.
OK26 cells (OK (opossum kidney) cells in which human NHE3 genes are overexpressed) were used as cells for the test. The measurements were carried out in the same manner as described in Pharmacological Test Example 1 except that the measurement time was 5 minutes (at 37° C.) to calculate NHE3 inhibitory activities.

For assay [2], the target named is T1, human NHE3. The experiment in a line: Improved version of measurements of NHE3 inhibitory activities (OK26 ND cell lines). Particulars: OK26 ND cell lines (opNHE1 expression reduced by 90%), measurement time 8 minutes at 26° C.; read-out: hNHE3 IC50. The protocol:
Pharmacological Test Example 3: Improved Version of Measurements of NHE3 Inhibitory Activities
OK26 cells express endogeneous NHE1 (opNHE1). In order to evaluate NHE3 inhibitory activities more precisely, OK26 ND cell lines in which the expression level of opNHE1 is reduced by 90% were established. Measurements of NEE inhibitory activities were carried out by using the established cell lines in the same manner as described in Pharmacological Test Example 1 except that the measurement time was 8 minutes (at 26° C.) to calculate more precise NHE3 inhibitory activities.

A further assay deals with T2, NHE1 (Homo sapiens, UniProt P19634).
T2 construct: HLF cells (Human hepatoma cell line) were used as cells for the test; endogenous in cells; host or cells: HLF cells (human hepatoma cell line)
T2 sequence (P19634 whole entry): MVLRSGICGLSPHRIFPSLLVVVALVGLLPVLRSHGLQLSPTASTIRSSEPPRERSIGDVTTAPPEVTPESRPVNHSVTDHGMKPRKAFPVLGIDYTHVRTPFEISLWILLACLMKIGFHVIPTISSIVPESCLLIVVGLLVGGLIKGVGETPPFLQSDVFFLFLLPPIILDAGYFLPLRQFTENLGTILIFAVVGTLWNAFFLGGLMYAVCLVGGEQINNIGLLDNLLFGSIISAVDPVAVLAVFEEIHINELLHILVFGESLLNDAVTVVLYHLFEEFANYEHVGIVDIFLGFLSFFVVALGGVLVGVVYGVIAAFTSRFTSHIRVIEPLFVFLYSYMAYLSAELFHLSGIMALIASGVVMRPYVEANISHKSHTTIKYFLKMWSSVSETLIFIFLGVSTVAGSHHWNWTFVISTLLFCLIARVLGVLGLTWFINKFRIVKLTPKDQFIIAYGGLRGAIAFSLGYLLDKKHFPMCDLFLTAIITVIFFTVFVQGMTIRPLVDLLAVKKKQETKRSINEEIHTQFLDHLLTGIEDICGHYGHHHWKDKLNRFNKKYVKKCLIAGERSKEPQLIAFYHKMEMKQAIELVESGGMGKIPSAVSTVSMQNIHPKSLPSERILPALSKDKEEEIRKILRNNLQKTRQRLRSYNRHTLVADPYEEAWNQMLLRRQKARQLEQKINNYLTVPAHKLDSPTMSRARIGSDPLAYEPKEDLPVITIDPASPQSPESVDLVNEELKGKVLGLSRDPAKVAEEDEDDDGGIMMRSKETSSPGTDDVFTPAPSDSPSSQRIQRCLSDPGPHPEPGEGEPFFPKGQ
The experiment in a line: Measurements of NHE1 inhibitory activities (HLF cells, BCECF pH recovery). Particulars: HLF cells (human hepatoma cell line), measured after 10 minutes; read-out: hNHE1 IC50. How it is done: Pharmacological Test Example 1: Measurements of NHE1 Inhibitory Activities
as §1

For orientation: IC50 means the concentration at which inhibition is half-maximal. `C/C(=C\c1ccccc1-c1ccc(O)cc1)C(=O)NC(=N)N` [Example 2, N-[(E)-3-(4′-hydroxy-biphenyl-2-yl)-2-methyl-acryloyl]-guanidine]: the IC50 at human NHE3 [1] is 110 nM; at human NHE3 [2] it was 83 nM.
Turning to `C/C(=C\c1ccccc1-c1ccc(C(=O)O)cc1)C(=O)NC(=N)N` [Example 10, (E)-2′-(3-guanidino-2-methyl-3-oxo-propenyl)-biphenyl-4-carboxylic acid], on human NHE3 [1], the IC50 came out at 1600 nM.
`C/C(=C\c1ccccc1-c1ccc(B(O)O)cc1)C(=O)NC(=N)N` [Example 11, N-[(E)-3-(4′-boronic acid-biphenyl-2-yl)-2-methyl-acryloyl]guanidine]: the IC50 stood at 1200 nM on NHE1, 230 nM at human NHE3 [1] and 100 nM on human NHE3 [2].
Consider `C/C(=C\c1ccccc1-c1cccc(O)c1)C(=O)NC(=N)N` [Example 13, N-[(E)-3-(3′-hydroxy-biphenyl-2-yl)-2-methyl-acryloyl]guanidine], for which the IC50 turned out to be 210 nM at human NHE3 [1] and 110 nM at human NHE3 [2].
In the same order, the values of `C/C(=C\c1cc(O)c(O)cc1-c1cccc(O)c1)C(=O)NC(=N)N` [Example 36, N-[(E)-2-methyl-3-(4,5,3′-trihydroxy-biphenyl-2-yl)-acryloyl]-guanidine] are 320 nM and 230 nM.
As to `C/C(=C\c1ccc(Oc2ccc(O)cc2)cc1-c1ccc(O)cc1)C(=O)NC(=N)N` [Example 71, N-{(E)-3-[4′-hydroxy-5-(4-hydroxy-phenoxy)-biphenyl-2-yl]-2-methyl-acryloyl}-guanidine], the results for the IC50 on NHE1 and at human NHE3 [2] were 1300 nM and 130 nM, respectively.
In the same order, the values of `C/C(=C\c1ccc(-c2ccc(O)cc2)cc1-c1ccc(O)cc1)C(=O)NC(=N)N` [Example 72, N-[(E)-3-(2,4-di(4-hydroxyphenyl)-phenyl)-2-methyl-acryloyl]-guanidine] are 1100 nM and 87 nM.
In the same order, the values of `COc1ccc(-c2cc(C)ccc2/C=C(\C)C(=O)NC(=N)N)cc1O` [Example 74, N-[(E)-3-(3′-hydroxy-4′-methoxy-5-methyl-biphenyl-2-yl)-2-methyl-acryloyl]-guanidine] are 1400 nM and 200 nM.
The matching figures for `C/C(=C\c1ccc(-c2cc(C)c(O)c(C)c2)cc1-c1cc(C)c(O)c(C)c1)C(=O)NC(=N)N` [Example 75, N-[(E)-3-(2,4-di(3,5-dimethyl-4-hydroxyphenyl)-phenyl)-2-methyl-acryloyl]-guanidine]: 1800 nM and 100 nM.
With `C/C(=C\c1ccc(-c2ccc(F)c(O)c2)cc1-c1ccc(F)c(O)c1)C(=O)NC(=N)N` [Example 76, N-[(E)-3-(2,4-di(3-hydroxy-4-fluorophenyl)-phenyl)-2-methyl-acryloyl]-guanidine], the IC50 is 1100 nM on NHE1 and 400 nM at human NHE3 [2].
The matching figures for `C/C(=C\c1ccc(-c2cccc(O)c2)cc1-c1cccc(O)c1)C(=O)NC(=N)N` [Example 77, N-[(E)-3-(2,4-di(3-hydroxyphenyl)-phenyl)-2-methyl-acryloyl]-guanidine]: 940 nM and 61 nM.
The matching figures for `COc1cc(-c2ccc(/C=C(\C)C(=O)NC(=N)N)c(-c3ccc(O)c(OC)c3)c2)ccc1O` [Example 78, N-[(E)-3-(2,4-di(3-methoxy-4-hydroxyphenyl)-phenyl)-2-methyl-acryloyl]-guanidine]: 3300 nM and 150 nM.
The matching figures for `C/C(=C\c1ccc(C)cc1-c1ccc(C(=N)N)c(F)c1)C(=O)NC(=N)N` [Example 79, (E)-3-fluoro-2′-(3-guanidino-2-methyl-3-oxo-propenyl)-5′-methyl-biphenyl-4-carboxamidine]: 5200 nM and 700 nM.
`C/C(=C\c1c(-c2ccc(O)cc2)cccc1-c1ccc(O)cc1)C(=O)NC(=N)N` [Example 80, N-[(E)-3-(4,4″-dihydroxy-[1,1′;3′,1″]terphenyl-2′-yl)-2-methyl-acryloyl]-guanidine]: the IC50 at NHE1 amounted to 7700 nM; at human NHE3 [2], 200 nM.
In the same order, the values of `C/C(=C\c1ccc(C(F)(F)F)cc1-c1ccc(O)cc1)C(=O)NC(=N)N` [Example 81, N-[(E)-3-(4′-hydroxy-5-trifluoromethyl-biphenyl-2-yl)-2-methyl-acryloyl]-guanidine] are 5200 nM and 630 nM.
In the same order, the values of `C/C(=C\c1c(F)cccc1-c1ccc(O)cc1)C(=O)NC(=N)N` [Example 82, N-[(E)-3-(3-fluoro-4′-hydroxy-biphenyl-2-yl)-2-methyl-acryloyl]-guanidine] are 6600 nM and 350 nM.
In the same order, the values of `C/C(=C\c1ccccc1-c1cscc1C)C(=O)NC(=N)N` [Example 83, N-{(E)-2-methyl-3-[2-(4-methyl-thiophene-3-yl)-phenyl]-acryloyl}-guanidine] are 2200 nM and 540 nM.
For `C/C(=C\c1ccccc1-c1cc[nH]c1)C(=O)NC(=N)N` [Example 84, N-{(E)-2-methyl-3-[2-(1H-pyrrole-3-yl)-phenyl]-acryloyl}-guanidine], the IC50 on NHE1 came out at 2100 nM; at human NHE3 [2], 180 nM.
As to `C/C(=C\c1ccc(-c2ccc(O)cc2C)cc1)C(=O)NC(=N)N` [Example 86, N-[(E)-3-(4′-hydroxy-2′-methyl-biphenyl-4-yl)-2-methyl-acryloyl]-guanidine], at human NHE3 [1], the IC50 came to 230 nM.
On the same count and under the same terms, with `C/C(=C\c1ccc(-c2cccc(O)c2)cc1)C(=O)NC(=N)N` [Example 87, N-[(E)-3-(3′-hydroxy-biphenyl-4-yl)-2-methyl-acryloyl]-guanidine] the figure was 270 nM.
Same read-out and setting: with `C/C(=C\c1ccc(-c2ccccc2O)cc1)C(=O)NC(=N)N` [Example 88, N-[3-(2′-hydroxy-biphenyl-4-yl)-2-methyl-acryloyl]-guanidine] the figure was 480 nM; with `C/C(=C\c1ccc(-c2ccc(F)c(O)c2)cc1)C(=O)NC(=N)N` [Example 89, N-[(E)-3-(4′-fluoro-3′-hydroxy-biphenyl-4-yl)-2-methyl-acryloyl]-guanidine], 860 nM.
Regarding `C/C(=C\c1ccc(-c2ccc(O)cc2)cc1N1CCOCC1)C(=O)NC(=N)N` [Example 94, N-[(E)-3-(4′-hydroxy-3-morpholine-4-yl-biphenyl-4-yl)-2-methyl-acryloyl]-guanidine], the IC50 on NHE1 came to 2100 nM; on human NHE3 [2], 320 nM.

The record behind these values is US20120088737A2, “NOVEL ACYL GUANIDINE DERIVATIVES” (AJINOMOTO CO., INC, priority 2009, published 2012).
